According to patent US10219516B2, “Molecules having pesticidal utility, and intermediates, compositions, and processes, related thereto” (priority 2015, dated 2019):
Where two headings read alike, the source gives them in different places.

Columns and labels:
Assay type in all cases: in vivo
[1] = tested on: Beet Armyworm (Spodoptera exigua, LAPHEG); assay: Bioassay on Beet Armyworm (BAW), 128-well diet tray assay
Outline: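 Percent mortality, averaged across eight replicate wells, was scored after five to seven days at 25° C. under a 14:10 light-dark cycle. Each well's diet carried 50 μg/cm^2 of the dried test molecule and held one to five second instar larvae.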

[2] = tested on: Cabbage Looper (Trichoplusia ni, TRIPNI); assay: Bioassay on Cabbage Looper (CL), 128-well diet tray assay; conditions: Trichoplusia ni
Outline: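 Test molecule is dissolved in 90:10 acetone-water and applied at 50 μg/cm^2 onto artificial diet, then dried. One to five second-instar larvae go into each of eight wells. Trays, sealed but vented, stay at 25° C., 14:10 light-dark, five to seven days, after which mortality is averaged.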

[3] = tested on: Yellow Fever Mosquito (Aedes aegypti, AEDSAE); assay: Bioassay on Yellow Fever Mosquito (YFM), 96-well plate larval assay; conditions: for YFM rating: Yellow Fever Mosquito, 96-well plate larval assay; for YFM (Biological Results, rating): Species YFM (Yellow Fever Mosquito)
Description: Certain molecules disclosed in this document were tested against YFM using procedures described in the following paragraph. In the reporting of the results, the “GPA & YFM Rating Table” was used (See Table Section).
Master plates containing 400 μg of a molecule dissolved in 100 μL of dimethyl sulfoxide (DMSO) (equivalent to a 4000 ppm solution) are used. A master plate of assembled molecules contains 15 μL per well. To this plate, 135 μL of a 90:10 water/acetone mixture is added to each well. A robot is programmed to dispense 15 μL aspirations from the master plate into an empty 96-well shallow plate (“daughter” plate). There are 6 reps (“daughter” plates) created per master. The created “daughter” plates are then immediately infested with YFM larvae.
The day before plates are to be treated, mosquito eggs are placed in Millipore water containing liver powder to begin hatching (4 g. into 400 mL). After the “daughter” plates are created using the robot, they are infested with 220 μL of the liver powder/larval mosquito mixture (about 1 day-old larvae). After plates are infested with mosquito larvae, a non-evaporative lid is used to cover the plate to reduce drying. Plates are held at room temperature for 3 days prior to grading. After 3 days, each well is observed and scored based on mortality. The results are indicated in the table entitled “Table ABC: Biological Results” (See Table Section).

[4] = Beet Armyworm, 128-well diet tray assay, read-out: BAW rating
[5] = Cabbage Looper, 128-well diet tray assay, read-out: CL rating
[6] = Species BAW (Beet Armyworm), read-out: BAW (Biological Results, rating)
[7] = Species CL (Cabbage Looper), read-out: CL (Biological Results, rating)

Row | Compound | pest or weed control at 50 µg/cm2 [1, 4] [%] | pest or weed control at 50 µg/cm2 [2, 5] [%] | YFM rating [3] | pest or weed control at 50 µg/cm2 [1, 6] [%] | pest or weed control at 50 µg/cm2 [2, 7] [%] | YFM (Biological Results, rating) [3]
1 | Cn1nc(NC(=O)c2cc(NC(=O)C3C(c4cc(Cl)cc(Cl)c4)C3(Cl)Cl)ccc2Cl)c2c(F)cccc21 (stereo not drawn) [F449, 2-Chloro-5-(trans)-2,2-dichloro-3-(3,5-dichlorophenyl)cyclopropane-1-carboxamido)-N-(4-fluoro-1-methyl-1H-indazol-3-yl)benzamide] | 50 to 100 | 50 to 100 | A (80-100) | – | – | –
2 | CC(C)(C)OC(=O)Nc1cccc(NC(=O)c2cc(NC(=O)[C@H]3[C@H](c4ccc(F)c(Cl)c4)C3(Cl)Cl)ccc2Cl)n1 (relative stereo) [F506, tert-Butyl (6-(2-chloro-5-(trans-2,2-dichloro-3-(3-chloro-4-fluorophenyl)cyclopropane-1-carboxamido)benzamido)pyridin-2-yl)carbamate] | 50 to 100 | 50 to 100 | A (80-100) | – | – | –
3 | O=C(Nc1ccc(F)cc1F)c1cc(NC(=O)[C@H]2[C@H](c3ccc(Br)c(C(F)(F)F)c3)C2(Cl)Cl)ccc1Cl (relative stereo) [F366, 5-(trans)-(3-(4-Bromo-3-(trifluoromethyl)phenyl)-2,2-dichlorocyclopropane-1-carboxamido)-2-chloro-N-(2,4-difluorophenyl)benzamide] | – | – | – | 50 to 100 | 50 to 100 | A (80-100)
4 | O=C(Nc1ccc(F)c(F)c1F)c1cc(NC(=O)[C@H]2[C@H](c3cc(Cl)cc(Cl)c3)C2(Cl)Cl)ccc1Cl (relative stereo) [PF68, trans-2-Chloro-5-(2,2-dichloro-3-(3,5-dichlorophenyl)cyclopropane-1-carboxamido)-N-(2,3,4-trifluorophenyl)benzamide] | 50 to 100 | 50 to 100 | A (80-100) | – | – | –
5 | C=Cc1cc(Cl)cc([C@H]2[C@H](C(=O)Nc3ccc(Cl)c(C(=O)Nc4ccc(F)c(N)c4F)c3)C2(Cl)Cl)c1 (relative stereo) [F356, N-(3-Amino-2,4-difluorophenyl)-2-chloro-5-(trans-2,2-dichloro-3-(3-chloro-5-vinylphenyl)cyclopropane-1-carboxamido)benzamide] | – | – | – | 50 to 100 | 50 to 100 | A (80-100)
6 | COCC1(C(=O)Nc2ccc(NC(=O)c3cc(NC(=O)[C@H]4[C@H](c5cc(Cl)cc(Cl)c5)C4(Cl)Cl)ccc3Cl)cc2)CC1 (relative stereo) [PF161, trans-2-Chloro-5-(2,2-dichloro-3-(3,5-dichlorophenyl)cyclopropane-1-carboxamido)-N-(4-(1-(methoxymethyl)cyclopropane-1-carboxamido)phenyl)benzamide] | 50 to 100 | 50 to 100 | A (80-100) | – | – | –
7 | O=C(Nc1cc(F)c(F)c(Br)c1)c1cc(NC(=O)[C@H]2[C@H](c3cc(Cl)cc(Cl)c3)C2(Cl)Cl)ccc1Cl [F583, N-(3-Bromo-4,5-difluorophenyl)-2-chloro-5-((1R,3R)-2,2-dichloro-3-(3,5-dichlorophenyl)cyclopropane-1-carboxamido)benzamide] | 50 to 100 | 50 to 100 | A (80-100) | – | – | –
8 | O=C(Nc1ncc(F)cc1F)c1cc(NC(=O)[C@H]2[C@H](c3ccc(C(F)F)c(F)c3)C2(Cl)Cl)ccc1Cl (relative stereo) [F589, 2-chloro-5-(trans-2,2-dichloro-3-(4-(difluoromethyl)-3-fluorophenyl)cyclopropane-1-carboxamido)-N-(3,5-difluoropyridin-2-yl)benzamide] | 50 to 100 | 50 to 100 | A (80-100) | – | – | –
9 | N#Cc1ccc2c(N)nn(C(=O)c3cc(NC(=O)[C@H]4[C@H](c5cc(Cl)cc(Cl)c5)C4(Cl)Cl)ccc3Cl)c2c1 (relative stereo) [F493, trans-N-(3-(3-Amino-6-cyano-1H-indazole-1-carbonyl)-4-chlorophenyl)-2,2-dichloro-3-(3,5-dichlorophenyl)cyclopropane-1-carboxamide] | 50 to 100 | 50 to 100 | A (80-100) | – | – | –
10 | C=Cc1cc(NC(=O)c2cc(NC(=O)[C@H]3[C@H](c4cc(Cl)cc(Cl)c4)C3(Cl)Cl)ccc2Cl)cnc1F (relative stereo) [F399, 2-Chloro-5-(trans-2,2-dichloro-3-(3,5-dichlorophenyl)cyclopropane-1-carboxamido)-N-(6-fluoro-5-vinylpyridin-3-yl)benzamide] | 50 to 100 | 50 to 100 | A (80-100) | – | – | –
11 | O=C(Nc1cc2cc[nH]c2cn1)c1cc(NC(=O)[C@H]2[C@H](c3cc(Cl)cc(Cl)c3)C2(Cl)Cl)ccc1Cl (relative stereo) [F474, 2-Chloro-5-(trans)-(2,2-dichloro-3-(3,5-dichlorophenyl)cyclopropane-1-carboxamido)-N-(1H-pyrrolo[2,3-c]pyridin-5-yl)benzamide] | 50 to 100 | 50 to 100 | A (80-100) | – | – | –
12 | CN(C(=O)c1cc(NC(=O)[C@H]2[C@H](c3cc(C(F)(F)F)cc(C(F)(F)F)c3)C2(Cl)Cl)ccc1Cl)c1ccc(F)cc1 (relative stereo) [F85, trans-5-(3-(3,5-Bis(trifluoromethyl)phenyl)-2,2-dichlorocyclopropane-1-carboxamido)-2-chloro-N-(4-fluorophenyl)-N-methylbenzamide] | – | – | – | 50 to 100 | 50 to 100 | A (80-100)
13 | CN(C(=O)c1cc(NC(=O)[C@H]2[C@H](c3cc(Cl)c(Cl)c(Cl)c3)C2(Cl)Cl)ccc1F)c1ccc(F)cc1F (relative stereo) [F65, trans-5-(2,2-Dichloro-3-(3,4,5-trichlorophenyl)cyclopropane-1-carboxamido)-N-(2,4-difluorophenyl)-2-fluoro-N-methylbenzamide] | – | – | – | 50 to 100 | 50 to 100 | A (80-100)
14 | CNc1cccc(NC(=O)c2cc(NC(=O)[C@H]3[C@H](c4cc(Cl)cc(Cl)c4)C3(Cl)Cl)ccc2Cl)c1 (relative stereo) [F202, trans-2-Chloro-5-(2,2-dichloro-3-(3,5-dichlorophenyl)cyclopropane-1-carboxamido)-N-(3-(methylamino)phenyl)benzamide] | – | – | – | 50 to 100 | 50 to 100 | A (80-100)
15 | C=Cc1ccc(NC(=O)[C@H]2[C@H](c3cc(Cl)cc(Cl)c3)C2(Cl)Cl)cc1C(=O)Nc1ccc(F)cc1 (relative stereo) [PF9, trans-5-(2,2-Dichloro-3-(3,5-dichlorophenyl)cyclopropanecarboxamido)-N-(4-fluorophenyl)-2-vinylbenzamide] | 50 to 100 | 50 to 100 | A (80-100) | – | – | –
16 | O=C(CC1CC1)Nc1ccc(NC(=O)c2cc(NC(=O)[C@H]3[C@H](c4cc(Cl)cc(Cl)c4)C3(Cl)Cl)ccc2Cl)cc1 (relative stereo) [PF163, trans-2-Chloro-N-(4-(2-cyclopropylacetamido)phenyl)-5-(2,2-dichloro-3-(3,5-dichlorophenyl)cyclopropane-1-carboxamido)benzamide] | 50 to 100 | 50 to 100 | A (80-100) | – | – | –
17 | CC(=O)Nc1cccc(NC(=O)c2cc(NC(=O)[C@H]3[C@H](c4cc(Cl)cc(Cl)c4)C3(Cl)Cl)ccc2Cl)n1 (relative stereo) [F494, N-(6-Acetamidopyridin-2-yl)-2-chloro-5-(trans-2,2-dichloro-3-(3,5-dichlorophenyl)cyclopropane-1-carboxamido)benzamide] | 50 to 100 | 50 to 100 | A (80-100) | – | – | –
18 | CN(C(=O)c1cc(NC(=O)[C@H]2[C@H](c3ccc(C(F)F)c(F)c3)C2(Cl)Cl)ccc1Cl)c1ccc(F)cc1 (relative stereo) [F597, 2-Chloro-5-(trans-2,2-dichloro-3-(4-(difluoromethyl)-3-fluorophenyl)cyclopropane-1-carboxamido)-N-(4-fluorophenyl)-N-methylbenzamide] | 50 to 100 | 50 to 100 | A (80-100) | – | – | –
19 | Cc1ccc2c(NC(=O)c3cc(NC(=O)[C@H]4[C@H](c5cc(Cl)cc(Cl)c5)C4(Cl)Cl)ccc3Cl)n[nH]c2c1 (relative stereo) [F478, 2-Chloro-5-(trans)-(2,2-dichloro-3-(3,5-dichlorophenyl)cyclopropane-1-carboxamido)-N-(6-methyl-1H-indazol-3-yl)benzamide] | 50 to 100 | 50 to 100 | A (80-100) | – | – | –
